The values that follow come from US20220153732A1, “PROTEIN SECRETION INHIBITORS” (KEZAR LIFE SCIENCES, priority 2019, published 2022).

The structures appear in SMILES notation. Read-outs that look alike come from different tables or passages of the source.

Holding throughout (type): cell-based
Assay [1] has as its system TNFα-FL/Gaussia Luciferase. Kind of assay: Dox Induced TNFα-FL-Gluc Assay. The note with it: 293FRT/TO cells, read-out: 24 hr Dox Inducible TNFaFLGluc 293FRT/TO: Mean IC50. In outline:
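Compounds were added in doxycycline-containing DMSO/media to cells plated the previous day and incubated at 37° C under 5% CO2. These cells stably express a TNFα-FL/Gaussia luciferase cDNA whose expression is under T-REx (Dox-inducible) control, selected with Hygromycin and Blasticidin.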

Assay [2] has as its system human multiple myeloma cell line NCI-H929. In words: H929 Cell Viability Assay. The settings on record: 48 hr, NCI-H929 cells, Celltiter-Glo, read-out: 48 hr H929 Viability Celltiter-Glo: Mean EC50. The protocol:
Plates were incubated at 37° C., 5% CO2 for 48 hours. After 48 hours, Celltiter-Glo® (Promega) was added to each well and luciferase signal was quantified using Tecan Infinite M1000 Pro for cell viability determination.
For chemical structures that include one or more stereoisomers, but are illustrated without indicating stereochemistry, the assay data refers to a mixture of stereoisomers.
A general note: ATP-based viability assays read luminescence as a measure of living cells.

Assay [3] concerns HER3-ss+4aa/Gaussia Luciferase. In words: Dox-Induced Her3-ss-Gluc Assay. The settings on record: 293FRT/TO cells, read-out: 24 hr Dox Inducible Her3(ss + 4)Gluc 293FRT/TO: Mean IC50. In outline: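 Compounds, diluted in DMSO/media containing doxycycline, were incubated at 37° C., 5% CO2 with cells seeded one day earlier. The cells stably express HER3-ss+4aa/Gaussia luciferase under T-REx control. Where no stereochemistry is shown, data refer to the mixture of stereoisomers.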

Assay [4] deals with IL-2-FL/Gaussia Luciferase. In words: Dox Induced IL2-FL-Gluc Assay. The settings on record: 293FRT/TO cells, read-out: 24 hr Dox Inducible IL2FLGIuc 293FRT/TO: Mean IC50. In outline:
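Compounds were added together with doxycycline in DMSO/media and incubated at 37° C., 5% CO2. The cells were a stably selected line carrying IL-2-FL/Gaussia luciferase under T-REx inducible control. Structures drawn without stereochemistry were tested as stereoisomer mixtures.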

The subject of assay [5] is human multiple myeloma cell line U266B1. Kind of assay: U266 Cell Viability Assay. The settings on record: U-266, 48 hr, U266B1 cells, Celltiter-Glo, read-out: 48 hr U266 Viability Celltiter-Glo: Mean EC50. In outline:
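Viability measured by CellTiter-Glo luciferase signal after 48 h compound exposure (37 °C, 5% CO2) of U266B1 cells in 384-well format. Where stereochemistry is not shown, data refer to the stereoisomer mixture.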

Assay [6] has as its system PD1-ss+10aa/Gaussia Luciferase. Kind of assay: Dox-Induced PD1-ss-Gluc Assay. The settings on record: 293FRT/TO cells, read-out: 24 hr Dox Inducible PD1ssGluc 293FRT/TO: Mean IC50. An outline of the steps: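 Compounds, diluted in DMSO/media with doxycycline, were added to cells plated a day earlier and kept at 37° C under 5% CO2. The cells stably express a Gaussia luciferase construct fused to PD1-ss+10aa, induced via the T-REx system. Unassigned stereochemistry means mixture data.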

Setting [7] is: 24 hr doxycycline induction, Gaussia luciferase signal.

In the case of `O=C(Nc1nc(/C=C/c2ccoc2)cs1)c1cccn1CCCc1ccncc1` [Compound A232, N-(4-(2-(furan-3-yl)vinyl)thiazol-2-yl)-1-(3-(pyridin-4-yl)propyl)-1H-pyrrole-2-carboxamide], the IC50 in assay [1] (setting [7]) came to 21.5 µM; in assay [3] (setting [7]), 14.9 µM; in assay [4] (setting [7]), 8.6 µM; in assay [6] (setting [7]), 2.99 µM. Also, the concentration for a half-maximal effect (EC50) (as a rule, the concentration needed to bring the measured effect to its halfway point) was 13.4 µM in assay [2] and 19.7 µM in assay [5].
Take `O=C(Nc1nc(/C=C/c2ccc(OC3CC3)cc2)cs1)c1cccn1Cc1ccncc1` [Compound A248, N-(4-(4-cyclopropoxystyryl)thiazol-2-yl)-1-(pyridin-4-ylmethyl)-1H-pyrrole-2-carboxamide]: the IC50 is 1.51 µM in assay [1] (setting [7]), 0.152 µM in assay [3] (setting [7]), 0.211 µM in assay [4] (setting [7]) and 0.038 µM in assay [6] (setting [7]). Moreover, the EC50 in assay [2] and in assay [5] was > 25 µM throughout.
Regarding `O=C(Nc1nc([C@@H]2CCCN2c2ccccc2)cs1)c1cccn1Cc1ccncc1Cl` [Compound A318], the IC50 came to 0.817 µM in assay [1] (24 hr, doxycycline-induced); 0.097 µM in assay [3] (24 hr, doxycycline-induced); 0.184 µM in assay [4] (24 hr, doxycycline-induced); 0.049 µM in assay [6] (24 hr, doxycycline-induced). Moreover, the EC50 in assay [2] is 6.04 µM; in assay [5], > 25 µM.
Turning to `CC(C)OC(C)(C)c1csc(NC(=O)c2cccn2[C@H](C)c2ccncc2)n1` [Compound A49, (R)-N-(4-(2-isopropoxypropan-2-yl)thiazol-2-yl)-1-(1-(pyridin-4-yl)ethyl)-1H-pyrrole-2-carboxamide], the IC50 in assay [1] (setting [7]) came to 23.6 µM; in assay [3] (setting [7]), 2.58 µM; in assay [4] (setting [7]), 1.89 µM; in assay [6] (setting [7]), 1.21 µM. The EC50 in assay [2] and in assay [5] was > 25 µM in each case.
In the case of `CC(C)OC(C)(C)c1csc(NC(=O)c2cccn2CCCc2ccccc2)n1` [Compound A64, N-(4-(2-isopropoxypropan-2-yl)thiazol-2-yl)-1-(3-phenylpropyl)-1H-pyrrole-2-carboxamide], the IC50 in assay [1] (setting [7]) is > 25 µM; in assay [3] (setting [7]) it was 3.48 µM; in assay [4] (setting [7]) it was 2.72 µM; in assay [6] (setting [7]), 1.73 µM. Further, the 50% effective concentration (EC50) in assay [2] is 23.2 µM; in assay [5], > 25 µM.
With `O=C(Nc1nc(C2CCN(Cc3ccccc3)CC2)cs1)c1cccn1Cc1ccncc1` [Compound A302], the IC50 in assay [1] (24 hr, doxycycline-induced) is > 25 µM; in assay [3] (24 hr, doxycycline-induced), 6.17 µM; in assay [4] (24 hr, doxycycline-induced) it was 10.6 µM; in assay [6] (24 hr, doxycycline-induced), 1.98 µM. Moreover, the EC50 in assay [2] and in assay [5] was > 25 µM throughout.
In the case of `O=C(Nc1nc(CCO)cs1)c1cccn1Cc1ccncc1` [Compound A120], the IC50 in assay [1] (setting [7]), in assay [3] (setting [7]), in assay [4] (setting [7]) and in assay [6] (setting [7]) was > 25 µM each time. Besides, the EC50 in assay [2] and in assay [5] was > 25 µM each time.
`CC(C)(O)c1cnc(NC(=O)c2cccn2Cc2ccncc2)s1` [Compound A89]: the IC50 in assay [1] (setting [7]) is > 25 µM; in assay [3] (setting [7]), > 25 µM; in assay [4] (setting [7]), > 25 µM; in assay [6] (setting [7]), 9.85 µM. For the same molecule, the EC50 in assay [2] and in assay [5] was > 25 µM in each case.
`CCc1cc(N(C)C(=O)c2cccn2Cc2ccncc2)ccc1C` [Compound B25, N-(3-ethyl-4-methylphenyl)-N-methyl-1-(pyridin-4-ylmethyl)-1H-pyrrole-2-carboxamide]: the IC50 was > 25 µM in assay [1] (24 hr, doxycycline-induced); > 25 µM in assay [3] (24 hr, doxycycline-induced); > 25 µM in assay [4] (24 hr, doxycycline-induced); > 25 µM in assay [6] (24 hr, doxycycline-induced). The EC50 in assay [2] and in assay [5] was > 25 µM in each case.
With `CC(C)OC(C)(C)c1csc(NC(=O)c2cccn2Cc2ccc(S(C)(=O)=O)cc2)n1` [Compound A84, N-(4-(2-isopropoxypropan-2-yl)thiazol-2-yl)-1-(4-(methylsulfonyl)benzyl)-1H-pyrrole-2-carboxamide], the IC50 in assay [1] (setting [7]) is > 25 µM; in assay [3] (setting [7]) it was > 25 µM; in assay [4] (setting [7]), 5.82 µM; in assay [6] (setting [7]), 6.34 µM. Further, the EC50 in assay [2] and in assay [5] was > 25 µM each time.
Turning to `CC(C)OC(C)(C)c1csc(NC(=O)c2cccn2Cc2cc(F)nc(F)c2)n1` [Compound A36, 1-((2,6-difluoropyridin-4-yl)methyl)-N-(4-(2-isopropoxypropan-2-yl)thiazol-2-yl)-1H-pyrrole-2-carboxamide], the IC50 in assay [1] (setting [7]) is 21 µM; in assay [3] (setting [7]), 1.14 µM; in assay [4] (setting [7]) it was 0.896 µM; in assay [6] (setting [7]), 0.698 µM. Moreover, the EC50 in assay [2] and in assay [5] was > 25 µM in each case.
Turning to `CC(C)OC(C)(C)c1csc(NC(=O)c2cccn2CC2CNC(=O)C2)n1` (stereo not drawn) [Compound A93, N-(4-(2-isopropoxypropan-2-yl)thiazol-2-yl)-1-((5-oxopyrrolidin-3-yl)methyl)-1H-pyrrole-2-carboxamide], the IC50 in assay [1] (setting [7]) was > 25 µM; in assay [3] (setting [7]) it was > 25 µM; in assay [4] (setting [7]) it was > 25 µM; in assay [6] (setting [7]) it was 13.2 µM. Besides, the EC50 in assay [2] and in assay [5] was > 25 µM throughout.
On to `CCc1nc(NC(=O)[C@H]2CCCN2Cc2ccncc2)sc1C` [Compound B24], for which the IC50 was > 25 µM in assay [1] (24 hr, doxycycline-induced); > 25 µM in assay [3] (24 hr, doxycycline-induced); > 25 µM in assay [4] (24 hr, doxycycline-induced); > 25 µM in assay [6] (24 hr, doxycycline-induced). Moreover, the EC50 in assay [2] and in assay [5] was > 25 µM in each case.
For the molecule `CC1(c2csc(NC(=O)c3cccn3Cc3ccncc3)n2)CC1` [Compound A67, N-(4-(1-methylcyclopropyl)thiazol-2-yl)-1-(pyridin-4-ylmethyl)-1H-pyrrole-2-carboxamide], the IC50 in assay [1] (setting [7]) was > 25 µM; in assay [3] (setting [7]), 3.24 µM; in assay [4] (setting [7]) it was 2.08 µM; in assay [6] (setting [7]), 1.88 µM. Further, the EC50 in assay [2] and in assay [5] was > 25 µM each time.
On to `CC(=O)N(C)c1ccc(/C=C/c2csc(NC(=O)c3cccn3Cc3ccncc3)n2)cc1` [Compound A245], for which the IC50 is 22.2 µM in assay [1] (setting [7]), > 25 µM in assay [3] (setting [7]), 14.1 µM in assay [4] (setting [7]) and 3.18 µM in assay [6] (setting [7]). Further, the values for the EC50 in assay [2] and in assay [5] were 9.06 µM and 17.5 µM, respectively.
On to `CN(C)C(=O)c1ccc(/C=C/c2csc(NC(=O)c3cccn3Cc3ccncc3)n2)cc1` [Compound A246], for which the IC50 in assay [1] (setting [7]) was > 25 µM; in assay [3] (setting [7]) it was 21.9 µM; in assay [4] (setting [7]), > 25 µM; in assay [6] (setting [7]), 0.526 µM. Moreover, the EC50 in assay [2] is 14 µM; in assay [5], 10.3 µM.
For the molecule `O=C(Nc1nc(N2CCC(c3ccccc3)CC2)cs1)c1cccn1Cc1ccncc1` [Compound A261], the IC50 was > 25 µM in assay [1] (setting [7]), 2.02 µM in assay [3] (setting [7]), > 25 µM in assay [4] (setting [7]) and 2.25 µM in assay [6] (setting [7]). In addition, the EC50 in assay [2] and in assay [5] was > 25 µM each time.
Regarding `O=C(Nc1nc(C2CC2c2ccccc2)cs1)c1cccn1CCCc1ccncc1` [Compound A215, N-(4-((1R,2R)-2-phenylcyclopropypthiazol-2-yl)-1-(3-(pyridin-4-yl)propyl)-1H-pyrrole-2-carboxamide], the IC50 in assay [1] (setting [7]) was 2.49 µM; in assay [3] (setting [7]) it was 0.72 µM; in assay [4] (setting [7]), 1.25 µM; in assay [6] (setting [7]), 0.443 µM. The EC50 in assay [2] is 13.1 µM; in assay [5] it was > 25 µM.
